We go through four compounds from patent EP3069725A1, “GLORIOSA SUPERBA L. EXTRACTS, COMPOSITIONS AND USE THEREOF” (priority 2015, dated 2016).

The test system of experiment [1] is cancer cells. The conditions noted are these: literature; cited from earlier work.
The subject of experiment [2] is cancer cells. The conditions noted are these: literature comparison with colchicine; cited from earlier work.
Another experiment deals with PANC02 cells. As to the kind of experiment: In vivo efficacy study, subcutaneous PANC02 tumour model. Also on record: species or system C57BL/6 mice. The settings on record: 60 mg/kg BW gemcitabine IP, 3 times/week. On the procedure:
Cultures of PANC02 cells were harvested using a 0.05% trypsin solution, washed twice in sterile PBS and resuspended in sterile PBS at a concentration of 30 x 10^6 cells per mL. The viable cells were counted by using the Muse® Cell Analyzer. The mice (n = 56) were inoculated with 100 µL of the cell suspension in the right hind limb. Each mouse was randomly assigned to one of 8 groups (n = 6-8 mice per group) receiving a different treatment (Table 2). Tumour growth of the subcutaneous model was evaluated with calliper measurements from the moment the tumours became palpable and this three times a week before treatment and daily during treatment. The tumour volume was calculated by means of formula V = 0.5 x ab^2, with a and b being the long and short axes of the tumour, respectively. Table 2 - Group treatment assignment
Treatment was administered during 10 days, starting 19 days after tumour inoculation when tumours had reached a volume of approximately 300-400 mm^3. The first day of treatment was assigned "day 1". […] For both extracts the total amount of colchicine and its derivatives (calculated as colchicine) was the same, but the amount of colchicine itself in the extracts was different. […] To evaluate the effect of the treatment, tumour volume was measured daily during treatment and the mice were sacrificed on day 11.
Results were expressed as mean values of parameters ± standard error (SE). […]

`COc1c(O[C@@H]2O[C@H](CO)[C@@H](O)[C@H](O)[C@H]2O)cc2c(c1OC)-c1ccc(OC)c(=O)cc1[C@@H](NC(C)=O)CC2` [Colchicoside]: the activity in vitro result in the experiment on cancer cells [1] is reported as “not active”.

For the compound `COc1cc2c(c(OC)c1O)-c1ccc(OC)c(=O)cc1[C@@H](NC(C)=O)CC2` [2-O-demethylcolchicine], the in vivo potency in the experiment on cancer cells [2] is reported as 13.8 µmol/kg. In the case of `COc1cc2c(c(OC)c1OC)-c1ccc(OC)c(=O)cc1[C@@H](NC(C)=O)CC2` [COL, colchicine], the in vivo potency in the experiment with cancer cells [2] was 0.4 µmol/kg. For the compound `Nc1ccn([C@@H]2O[C@H](CO)[C@@H](O)C2(F)F)c(=O)n1` [Gemcitabine, gemcitabine], the “% TGI (7 days)” value in the experiment on PANC02 cells (day 7) was 90%. In addition, in the experiment on PANC02 cells (day 10), the “% TGI (10 days)” value worked out at 99%.
